Assay results taken from patent US20200277251A1, “NOVEL ANTIBACTERIAL COMPOUNDS AND METHODS OF MAKING AND USING SAME” (BROWN UNIVERSITY, priority 2017, published 2020).
Converted amounts (≈) assume the structure as drawn.

Key:
E. coli = settings: cited from earlier work
Bacillus subtilis = test: Resazurin microtiter MIC assay, activity against Bacillus subtilis; type: cell-based
Experimental: Bacillus subtilis ATCC 11775 was plated on agar from a 20% glycerol stock solution stored at −80° C. Inoculated plates were then incubated at 37° C. under aerobic conditions for 16 hours. Single cultures were transferred to Nutrient Broth (NB) and cultured for 16 hours under the same conditions. […] Second passage cultures were standardized to O.D.−600 nm=1.0. The resazurin microtiter assay procedure described by Palomino and coworkers is used for assessing antimicrobial activity (Palomino, 2002, Antimicrob. Agents Chemother. 46:2720-2722). The assay is performed in LB broth. Resazurin sodium salt powder is prepared in distilled water and filter sterilized at […] (w/v) for MIC assays and at 0.01%8.55). (w/v) for single concentration assays. Compounds are first screened in MIC assays to assess whether growth inhibition is dependent on inhibitor concentration. The plates are incubated for 30 min under aerobic conditions. Growth controls containing no inhibitory compound, sterility controls without inoculation, and controls containing a known antibiotic, chloramphenicol, are also included. The innoculum was prepared from second passage cultures in Nutrient Broth (NB) and standardized to O.D.−600 nm=1.0 and the wells inoculated with a 1:20 dilution. Serial two-fold dilutions of each compound in 100 μL of medium are prepared directly in 96 well plates at concentrations ranging from 250 μM to 7 μM. After incubation 30 μL of resazurin solution is added to each well and incubated for 30 min. A change in color from blue to pink indicates reduction of resazurin, and therefore bacterial growth. Minimum inhibitory concentration (MIC) was determined as the lowest drug concentration that prevented the color change from blue to pink. Inhibition was quantified by observation of color change. Further studies were carried out at a single inhibitor concentration of 250 μM. The plates were incubated for 4 h under aerobic conditions with the same controls. After incubation 30 μL of resazurin solution was added to each well and incubated for 60 min. Inhibition was quantified by fluorescence readings from plate reader SAFIRE, Firmware: V 2.20 08/02 Safire. Excitation wavelength set to 560 nm, emission wavelength set to 590 nm. Well containing dye and non-inoculated cells was used as gain set. Plates are held at 37° C. and fluorescence measurements are taken at 0, 5, 10, 20, 30, and 60 min after addition of dye. Lower fluorescence values correlate to greater degrees of inhibition. Compounds are tested […] for their capacity to inhibit B. subtilis growth. […] Briefly, second-passage bacteria are incubated with inhibitor in a 96-well plate for four hours, then resazurin dye is added and color/fluorescence change is observed. […] Resorufin is also fluorescent and can be measured by a plate-reader.

Streptococcus pneumoniae = test: Resazurin microtiter MIC assay, activity against Streptococcus pneumoniae; type: cell-based
Experimental: The resazurin microtiter assay procedure described by Palomino and coworkers is used for assessing antimicrobial activity (Palomino, 2002, Antimicrob. Agents Chemother. 46:2720-2722). The assay is performed in LB broth. Resazurin sodium salt powder is prepared in distilled water and filter sterilized at […] (w/v) for MIC assays and at 0.01%8.55). (w/v) for single concentration assays. Compounds are first screened in MIC assays to assess whether growth inhibition is dependent on inhibitor concentration. The plates are incubated for 30 min under aerobic conditions. Growth controls containing no inhibitory compound, sterility controls without inoculation, and controls containing a known antibiotic, chloramphenicol, are also included. The innoculum was prepared from second passage cultures in Nutrient Broth (NB) and standardized to O.D.−600 nm=1.0 and the wells inoculated with a 1:20 dilution. Serial two-fold dilutions of each compound in 100 μL of medium are prepared directly in 96 well plates at concentrations ranging from 250 μM to 7 μM. After incubation 30 μL of resazurin solution is added to each well and incubated for 30 min. A change in color from blue to pink indicates reduction of resazurin, and therefore bacterial growth. Minimum inhibitory concentration (MIC) was determined as the lowest drug concentration that prevented the color change from blue to pink. Inhibition was quantified by observation of color change. Further studies were carried out at a single inhibitor concentration of 250 μM. The plates were incubated for 4 h under aerobic conditions with the same controls. After incubation 30 μL of resazurin solution was added to each well and incubated for 60 min. Inhibition was quantified by fluorescence readings from plate reader SAFIRE, Firmware: V 2.20 08/02 Safire. Excitation wavelength set to 560 nm, emission wavelength set to 590 nm. Well containing dye and non-inoculated cells was used as gain set. Plates are held at 37° C. and fluorescence measurements are taken at 0, 5, 10, 20, 30, and 60 min after addition of dye. Lower fluorescence values correlate to greater degrees of inhibition.

| Compound | effect on the viability of E. coli (E. coli) | MIC (Bacillus subtilis) [µM] | MIC (Streptococcus pneumoniae; 60 uM) [µM] | MIC (Streptococcus pneumoniae; same MIC in mass units) [µg/mL] |
| --- | --- | --- | --- | --- |
| CC1=N[C@@H]2[C@@H](O)[C@H](O)[C@@H](CO)O[C@@H]2S1 [NAG-thiazoline] | no effect | – | – | – |
| CCCCNC(=O)C(C1CCCCC1)N(C(=O)c1ccccc1OC)C1CCCCC1 (stereo not drawn) [qgka] | – | 50 (≈ 21.4 µg/mL) | – | – |
| CCCCNC(=O)C(C1CCCCC1)N(C(=O)c1ccccc1SC)c1ccccc1 (stereo not drawn) [sgqa] | – | – | 50 | 21.2 |
| C#CCN(C(=O)c1ccccc1C(F)(F)F)C(C(=O)NCCCC)C1CCCCC1 (stereo not drawn) [vgba] | – | – | 50 | 21.1 |
| CCCCNC(=O)C(C1CCCCC1)N(C(=O)c1ccccc1C(F)(F)F)C1CCCCC1 (stereo not drawn) [vgka] | – | 50 (≈ 23.3 µg/mL) | – | – |
| O=C(NC1CCCCC1)C(C1CCCCC1)N(C(=O)c1ccccc1C(F)(F)F)C1CCCCC1 (stereo not drawn) [vgkc] | – | 50 (≈ 24.6 µg/mL) | 5 | 2.46 |
| CCCCNC(=O)C(C1CCCCC1)N(C(=O)c1ccccc1C)C1CCCCC1 (stereo not drawn) [wgka] | – | 50 (≈ 20.6 µg/mL) | – | – |
| CCCCNC(=O)C(C1CCCCC1)N(C(=O)c1ccccc1C)c1ccccc1 (stereo not drawn) [wgqa] | – | – | 50 | 20.3 |
| CCCCNC(=O)C(C1CCCCC1)N(C(=O)c1ccccc1OC(C)=O)C1CCCCC1 (stereo not drawn) [ygka] | – | – | 5 | 2.33 |
